Assay results: ChEMBL document CHEMBL4118280, “An imidazole based H-Phe-Phe-NH2 peptidomimetic with anti-allodynic effect in spared nerve injury mice” (Bioorg Med Chem Lett, 2018)
Calls of active or inactive are those of the source.

How the values were obtained:
[1] = test system: Mus musculus; assay: Antiallodynic activity in ip dosed NMRI mouse model of spared nerve injury-induced mechanical allodynia assessed as pain relief administered 14 days post spared nerve injury surgery measured at 15 to 60 mins post dose by Von Frey filament assay; format: functional
[2] = test system: Mus musculus; assay: Antiallodynic activity in NMRI mouse model of spared nerve injury-induced mechanical allodynia assessed as pain relief at 12 umol/kg, ip administered 14 days post spared nerve injury surgery measured at 45 mins post dose by Von Frey filament assay; format: functional, organism-based
[3] = Apparent permeability from apical to basolateral side in human Caco2 cells at 100 uM after 15 to 120 mins by LC-MS analysis; format: ADME, cell-based; conditions: Caco-2
[4] = Apparent permeability from apical to basolateral side in human Caco2 cells assessed as mass balance at 100 uM after 15 to 120 mins by LC-MS analysis; format: ADME, cell-based; conditions: Caco-2, read-out: Activity
[5] = Apparent permeability from basolateral to apical side in human Caco2 cells at 100 uM after 15 to 120 mins by LC-MS analysis; format: ADME, cell-based; conditions: Caco-2
[6] = Apparent permeability from basolateral to apical side in human Caco2 cells assessed as mass balance at 100 uM after 15 to 120 mins by LC-MS analysis; format: ADME, cell-based; conditions: Caco-2, read-out: Activity
[7] = Efflux ratio of apparent permeability from basolateral to apical over apical to basolateral side in human Caco2 cells at 100 uM after 15 to 120 mins by LC-MS analysis; format: ADME, cell-based; conditions: Caco-2
[8] = Half life in NMRI mouse plasma at 4 uM after 180 mins by LC-MS/MS analysis; format: ADME, cell-free
[9] = test system: Mus musculus; assay: Antiallodynic activity in NMRI mouse model of spared nerve injury-induced mechanical allodynia assessed as increase in mechanical threshold at 185 nmol/kg, ip administered 14 days post spared nerve injury surgery measured at 15 to 60 mins post dose by Von Frey filament assay; format: functional, organism-based
[10] = test system: Mus musculus; assay: Antiallodynic activity in NMRI mouse model of spared nerve injury-induced mechanical allodynia assessed as pain relief at 585 umol/kg, ip administered 14 days post spared nerve injury surgery measured at 30 mins post dose Von Frey filament assay; format: functional, organism-based
[11] = test system: Mus musculus; assay: Antiallodynic activity in NMRI mouse model of spared nerve injury-induced mechanical allodynia assessed as pain relief at 585 umol/kg, ip administered 14 days post spared nerve injury surgery measured at 60 mins post dose by Von Frey filament assay; format: functional, organism-based
[12] = test system: Mus musculus; assay: Antiallodynic activity in NMRI mouse model of spared nerve injury-induced mechanical allodynia assessed as pain relief at 585 umol/kg, ip administered 14 days post spared nerve injury surgery measured at 180 mins post dose by Von Frey filament assay; format: functional, organism-based
[13] = Half life in human plasma at 4 uM after 180 mins by LC-MS/MS analysis; format: ADME, cell-free
[14] = Cytotoxicity against Sprague-Dawley rat primary cortical cells assessed as reduction in […] at 10^-5 to 10^-9 M after 24 hrs by LDH assay; format: cell-based
[15] = Cytotoxicity against Sprague-Dawley rat primary cortical cells assessed as reduction in cell viability at 10^-5 to 10^-9 M after 24 hrs by MTT assay; format: cell-based
[16] = test system: Mus musculus; assay: Antiallodynic activity in ip dosed NMRI mouse model of spared nerve injury-induced mechanical allodynia assessed as increase in mechanical threshold administered 14 days post spared nerve injury surgery by Von Frey filament assay; format: functional, organism-based
[17] = test system: Mus musculus; assay: Antiallodynic activity in NMRI mouse model of spared nerve injury-induced mechanical allodynia assessed as increase in mechanical threshold at 185 to 1850 nmol/kg, ip administered 14 days post spared nerve injury surgery measured at 15 to 60 mins post dose by Von Frey filament assay; format: functional, organism-based
[18] = test system: Mus musculus; assay: Antiallodynic activity in NMRI mouse model of spared nerve injury-induced mechanical allodynia assessed as increase in mechanical threshold at 1.85 to 1850 nmol/kg, ip administered 14 days post spared nerve injury surgery measured at 30 mins post dose by Von Frey filament assay; format: functional, organism-based
[19] = test system: Mus musculus; assay: Antiallodynic activity in NMRI mouse model of spared nerve injury-induced mechanical allodynia assessed as increase in mechanical threshold at 1.85 to 1850 nmol/kg, ip administered 14 days post spared nerve injury surgery measured at 45 mins post dose by Von Frey filament assay; format: functional, organism-based
[20] = test system: Mus musculus; assay: Potency index, ratio of gabapentin ED50 to compound ED50 for antiallodynic activity in ip dosed NMRI mouse model of spared nerve injury-induced mechanical allodynia by Von Frey filament assay; format: functional
[21] = test system: Mus musculus; assay: Antiallodynic activity in NMRI mouse model of spared nerve injury-induced mechanical allodynia assessed as increase in mechanical threshold at 185 nmol/kg, ip administered 14 days post spared nerve injury surgery and co-treated with 1850 nmol/kg, ip D-SP1-7 by Von Frey filament assay; format: functional, organism-based
[22] = test system: Mus musculus; assay: Potency index, ratio of morphine ED50 to compound ED50 for antiallodynic activity in ip dosed NMRI mouse model of spared nerve injury-induced mechanical allodynia by Von Frey filament assay; format: functional

Compound	ED50 [1] [µmol/kg]	Papp A→B at 100 µM [3] [nm/s]	recovery at 100 µM [4] [%]	Papp B→A at 100 µM [5] [nm/s]	recovery at 100 µM [6] [%]	efflux ratio at 100 µM [7]	half-life at 4 µM [8] [min]	Activity [9]	further results
CN1CC[C@]23c4c5ccc(O)c4O[C@H]2[C@@H](O)C=C[C@H]3[C@H]1C5 [MORPHINE]	6.5	–	–	–	–	–	–	–	Activity [2]: Active
OC[C@@H](O)[C@@H](O)[C@H](O)[C@H](O)CO [MANNITOL]	–	1	97 to 101	2	99 to 103	1.4	–	–	–
H-RPKPQQF-OH	–	–	–	–	–	–	4.4	–	–
H-RPKPQQF-NH2	–	–	–	–	–	–	6.4	Active	–
NCC1(CC(=O)O)CCCCC1 [GABAPENTIN]	336	–	–	–	–	–	–	–	Activity [10]: Active; Activity [11]: Active; Activity [12]: inactive
NC(=O)[C@H](Cc1ccccc1)NC(=O)c1[nH]cnc1-c1ccccc1	0.21	8.4	65	160	67	19	≥ 180	Active	half-life at 4 µM [13]: > 180 min; Activity [14]: Non-Toxic; Activity [15]: Non-Toxic; Activity [16]: Dose-dependent effect; Activity [17]: Active; Activity [18]: Active; Activity [19]: inactive; Ratio ED50 [20]: 1600; Activity [21]: inactive; Ratio ED50 [22]: 30
